Laboratory results: ChEMBL document CHEMBL4609983, “Pan-specific and partially selective dye-labeled peptidic inhibitors of the polycomb paralog proteins” (Bioorg Med Chem, 2020)
Non-standard residues stand in square brackets, D forms with d. Residues, ends and D or L forms follow the SMILES beside them. *: point of attachment. X1 = O=C(O)c1cc(NC(=S)*)ccc1-c1c2ccc(=O)cc-2oc2cc(O)ccc12; Lys(Me3) = C[N+](C)(C)CCCC[C@H](N)C(=O)O; Benzoyl(4-Br) = O=C(c1ccc(Br)cc1)*; Gly(cPent) = N[C@H](C(=O)O)C1CCCC1; Abu = CC[C@H](N)C(=O)O; βAla = NCCC(=O)O

Experiments:
[1] = target: T1, Chromobox protein homolog 6 (Homo sapiens, UniProt O95503); assay: Inhibition of CBX6 (unknown origin) assessed as […] by competitive FP assay
T1 sequence (O95503 whole entry): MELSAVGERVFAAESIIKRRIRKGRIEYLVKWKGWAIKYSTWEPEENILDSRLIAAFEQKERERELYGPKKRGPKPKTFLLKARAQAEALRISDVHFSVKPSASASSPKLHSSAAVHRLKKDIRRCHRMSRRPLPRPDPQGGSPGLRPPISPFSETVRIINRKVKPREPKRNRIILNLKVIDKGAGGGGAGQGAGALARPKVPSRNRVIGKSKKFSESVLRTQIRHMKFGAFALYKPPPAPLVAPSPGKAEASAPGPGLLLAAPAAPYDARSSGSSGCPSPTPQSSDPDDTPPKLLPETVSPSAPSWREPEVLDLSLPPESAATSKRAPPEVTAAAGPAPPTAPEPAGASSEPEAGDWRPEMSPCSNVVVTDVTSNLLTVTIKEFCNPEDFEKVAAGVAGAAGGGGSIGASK

[2] = target: T2, Chromobox protein homolog 7 (Homo sapiens, UniProt O95931); assay: Inhibition of CBX7 (unknown origin) assessed as […] by competitive FP assay
T2 sequence (O95931 whole entry): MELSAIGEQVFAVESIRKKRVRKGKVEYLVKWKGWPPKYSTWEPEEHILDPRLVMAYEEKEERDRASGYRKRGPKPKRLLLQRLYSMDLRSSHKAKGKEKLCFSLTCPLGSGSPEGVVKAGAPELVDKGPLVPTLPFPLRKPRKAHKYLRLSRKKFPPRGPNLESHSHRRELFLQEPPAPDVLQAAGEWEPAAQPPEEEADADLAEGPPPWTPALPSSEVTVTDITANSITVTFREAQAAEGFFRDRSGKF

[3] = target: T3, Chromobox protein homolog 8 (Homo sapiens, UniProt Q9HC52); assay: Inhibition of CBX8 (unknown origin) assessed as […] by competitive FP assay
T3 sequence (Q9HC52 whole entry): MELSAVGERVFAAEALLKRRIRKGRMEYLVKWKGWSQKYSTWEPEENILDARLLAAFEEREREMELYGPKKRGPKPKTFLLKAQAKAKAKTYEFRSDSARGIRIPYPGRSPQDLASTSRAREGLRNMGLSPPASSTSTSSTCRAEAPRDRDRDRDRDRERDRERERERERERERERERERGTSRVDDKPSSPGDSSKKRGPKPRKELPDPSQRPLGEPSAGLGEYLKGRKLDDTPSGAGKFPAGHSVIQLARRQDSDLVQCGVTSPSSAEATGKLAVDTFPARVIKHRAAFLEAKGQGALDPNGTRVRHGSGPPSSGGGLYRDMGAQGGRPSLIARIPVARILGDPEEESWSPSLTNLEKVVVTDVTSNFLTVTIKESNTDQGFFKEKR

[4] = species on record: Homo sapiens; assay: Selectivity ratio of IC50 for CBX7 (unknown origin) to IC50 for CBX8 (unknown origin)
[5] = species on record: Homo sapiens; assay: Selectivity ratio of IC50 for CBX4 (unknown origin) to IC50 for CBX7 (unknown origin)
[6] = target: Chromobox protein homolog 1 (Homo sapiens, UniProt P83916); assay: Binding affinity to CBX1 (unknown origin) assessed as dissociation constant by fluorescence polarization analysis
Sequence of Chromobox protein homolog 1 (P83916 whole entry): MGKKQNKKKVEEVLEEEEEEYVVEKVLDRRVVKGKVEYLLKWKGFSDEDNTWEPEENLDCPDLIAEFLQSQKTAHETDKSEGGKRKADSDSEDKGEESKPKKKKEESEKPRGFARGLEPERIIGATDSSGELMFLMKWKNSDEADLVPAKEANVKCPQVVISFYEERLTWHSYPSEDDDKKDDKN

[7] = target: T4, Chromobox protein homolog 2 (Homo sapiens, UniProt Q14781); assay: Binding affinity to CBX2 (unknown origin) assessed as dissociation constant by fluorescence polarization analysis
T4 sequence (Q14781 whole entry): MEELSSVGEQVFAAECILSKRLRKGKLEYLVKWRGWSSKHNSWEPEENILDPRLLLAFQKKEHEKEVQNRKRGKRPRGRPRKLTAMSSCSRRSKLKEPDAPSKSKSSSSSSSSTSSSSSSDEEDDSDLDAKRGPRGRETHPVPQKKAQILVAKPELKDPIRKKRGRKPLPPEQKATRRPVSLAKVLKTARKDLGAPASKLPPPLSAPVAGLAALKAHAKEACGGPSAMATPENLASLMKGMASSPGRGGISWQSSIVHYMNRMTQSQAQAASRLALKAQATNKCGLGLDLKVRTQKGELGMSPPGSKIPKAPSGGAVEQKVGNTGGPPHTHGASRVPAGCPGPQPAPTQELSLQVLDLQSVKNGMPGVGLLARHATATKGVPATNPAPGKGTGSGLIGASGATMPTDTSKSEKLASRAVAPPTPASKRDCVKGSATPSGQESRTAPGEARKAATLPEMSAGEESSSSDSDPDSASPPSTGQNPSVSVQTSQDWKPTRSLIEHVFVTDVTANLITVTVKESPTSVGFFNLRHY

[8] = target: T5, E3 SUMO-protein ligase CBX4 (Homo sapiens, UniProt O00257); assay: Binding affinity to CBX4 (unknown origin) assessed as dissociation constant by fluorescence polarization analysis
T5 sequence (O00257 whole entry): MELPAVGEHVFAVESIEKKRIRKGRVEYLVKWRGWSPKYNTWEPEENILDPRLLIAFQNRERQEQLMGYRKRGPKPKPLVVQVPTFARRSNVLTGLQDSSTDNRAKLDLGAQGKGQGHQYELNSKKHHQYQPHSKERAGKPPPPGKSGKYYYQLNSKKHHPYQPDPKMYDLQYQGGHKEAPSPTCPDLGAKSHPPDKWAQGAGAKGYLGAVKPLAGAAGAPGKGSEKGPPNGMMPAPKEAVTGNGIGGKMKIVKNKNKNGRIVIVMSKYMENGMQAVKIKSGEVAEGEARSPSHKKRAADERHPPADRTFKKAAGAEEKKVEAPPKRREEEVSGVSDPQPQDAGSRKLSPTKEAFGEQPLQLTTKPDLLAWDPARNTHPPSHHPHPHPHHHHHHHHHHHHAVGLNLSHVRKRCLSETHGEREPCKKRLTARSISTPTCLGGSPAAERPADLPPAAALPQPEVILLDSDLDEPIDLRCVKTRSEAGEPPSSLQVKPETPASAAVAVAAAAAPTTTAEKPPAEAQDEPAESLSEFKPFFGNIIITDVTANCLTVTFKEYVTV

[9] = target: T1, Chromobox protein homolog 6; assay: Binding affinity to CBX6 (unknown origin) assessed as dissociation constant by fluorescence polarization analysis
[10] = target: T2, Chromobox protein homolog 7; assay: Binding affinity to CBX7 (unknown origin) assessed as dissociation constant by fluorescence polarization analysis
[11] = target: T3, Chromobox protein homolog 8; assay: Binding affinity to CBX8 (unknown origin) assessed as dissociation constant by fluorescence polarization analysis
[12] = Drug uptake in cytoplasm of human TOV21G cells by live cell imaging analysis; assay type: ADME, cell-based
[13] = Drug uptake in cytoplasm of human PC3 cells by live cell imaging analysis; assay type: ADME, cell-based; conditions: pc-3
[14] = Drug uptake in human TOV21G cells assessed as endosomal entrapment by measuring characteristic punctate dots in the cytoplasm at 10 uM by cell imaging analysis; assay type: ADME, cell-based
[15] = Drug uptake in human PC3 cells assessed as endosomal entrapment by measuring characteristic punctate dots in the cytoplasm at 10 uM by cell imaging analysis; assay type: ADME, cell-based; conditions: pc-3, 10 µM
[16] = Drug uptake in human TOV21G cells by flow cytometric analysis; assay type: ADME, cell-based
[17] = Drug uptake in nucleus of human PC3 cells by live cell imaging analysis; assay type: ADME, cell-based; conditions: pc-3
[18] = Drug uptake in nucleus of human TOV21G cells by live cell imaging analysis; assay type: ADME, cell-based
[19] = test system: TOV21G; assay: Effect on cell cycle in human TOV21G cells by measuring cells distribution at G0 phase; assay type: cell-based
[20] = test system: TOV21G; assay: Effect on cell cycle in human TOV21G cells by measuring cells distribution at G1 phase; assay type: cell-based
[21] = test system: TOV21G; assay: Effect on cell cycle in human TOV21G cells by measuring cells distribution at S phase; assay type: cell-based
[22] = test system: TOV21G; assay: Effect on cell cycle in human TOV21G cells by measuring cells distribution at G2/M phase; assay type: cell-based

CC[C@H](NC(=O)[C@H](Cc1ccccc1)NC(=O)c1ccc(Br)cc1)C(=O)N[C@H](C(=O)N[C@@H](CCCC[N+](C)(C)C)C(=O)N[C@@H](CO)C(=O)N[C@@H](CCC(=O)O)C(N)=O)C1CCCC1 ({Benzoyl(4-Br)}-F[Abu][Gly(cPent)][Lys(Me3)]SE-NH2)
IC50 [1]: 2.8 µM
IC50 [2]: 8.3 µM
IC50 [3]: 3.8 µM
Ratio IC50 [4]: 2
Ratio IC50 [5]: 10

CC(C)C[C@H](NC(=O)[C@H](C)NC(=O)[C@H](Cc1ccccc1)NC(=O)[C@H](Cc1ccccc1)NC(=O)CCNC(=S)Nc1ccc(-c2c3ccc(=O)cc-3oc3cc(O)ccc23)c(C(=O)O)c1)C(=O)N[C@@H](CCCC[N+](C)(C)C)C(=O)N[C@@H](CO)C(N)=O ({X1-βAla}-FFAL[Lys(Me3)]S-NH2)
Kd [6]: 47 µM
Kd [7]: 3.1 µM
Kd [8]: 1.7 µM
Kd [9]: 1.1 µM
Kd [10]: 1.6 µM
Kd [11]: 1.7 µM
Drug uptake [12]: Not Active
Drug uptake [13]: Not Active
Drug uptake [14]: Active
Drug uptake [15]: Active
Drug uptake [16]: Active
Drug uptake [17]: Not Active
Drug uptake [18]: Not Active
Activity [19]: Non-Toxic
Activity [20]: Non-Toxic
Activity [21]: Non-Toxic
Activity [22]: Non-Toxic
